Results from patent publication US9167821B2 (priority 2009, dated 2015).
Counter-ions that a name gives are not always drawn.

Experiment: physchem
Description: The determination is effected in the acidic range at pH 2.3 using 0.1% aqueous phosphoric acid and acetonitrile as eluents; linear gradient from 10% acetonitrile to 95% acetonitrile. • ^[b] The LC-MS determination in the acidic range is effected at pH 2.7 using 0.1% aqueous formic acid and acetonitrile (contains 0.1% formic acid) as eluents; linear gradient from 10% acetonitrile to 95% acetonitrile. • ^[c] The LC-MS determination in the neutral range is effected at pH 7.8 using 0.001 molar aqueous ammonium hydrogencarbonate solution and acetonitrile as eluents; linear gradient from 10% acetonitrile to 95% acetonitrile.
The calibration is effected with unbranched alkan-2-ones (having 3 to 16 carbon atoms) with known log P values (determination of the log P values using the retention times by linear interpolation between two successive alkanones).

Structure (SMILES)	chromatographic logP (pH 2.7, log P (HCOOH))	chromatographic logP (pH 2.7, logp [b])	further results
CC(C)(C)OC(=O)N1CCC(c2nc(C3=NOC(c4ccccc4OCC4CCCCC4)C3)cs2)CC1 (centres unmarked) [X-a-7, tert-butyl 4-(4-{5-[2-(cyclohexylmethoxy)phenyl]-4,5-dihydro-1,2-oxazol-3-yl}-1,3-thiazol-2-yl)piperidine-1-carboxylate]			chromatographic logP (pH 2.7, log P (pH2.7)): 6.3
O=C(O)c1ccccc1C1CC(c2csc(C3CCN(C(=O)Cn4nc(C(F)F)cc4C(F)F)CC3)n2)=NO1 (centres unmarked) [2-{3-[2-(1-{[3,5-Bis(difluoromethyl)-1H-pyrazol-1-yl]acetyl}piperidin-4-yl)-1,3-thiazol-4-yl]-4,5-dihydro-1,2-oxazol-5-yl}benzoic acid]	2.63		
C=CCOc1cccc(Cl)c1C1CC(c2csc(C3CCN(C(=O)Cn4nc(C(F)F)cc4C(F)F)CC3)n2)=NO1 (centres unmarked) [I-51, 1-[4-(4-{5-[2-(Allyloxy)-6-chlorophenyl]-4,5-dihydro-1,2-oxazol-3-yl}-1,3-thiazol-2-yl)piperidin-1-yl]-2-[3,5-bis(difluoromethyl)-1H-pyrazol-1-yl]ethanone]		3.82	chromatographic logP (pH 7.8, logp [c]): 3.71
CC(C)(C)OC(=O)N1CCC(c2nc(-c3cc(-c4ccccc4C=O)on3)cs2)CC1 [X-b-1, tert-butyl 4-{4-[5-(2-formylphenyl)-1,2-oxazol-3-yl]-1,3-thiazol-2-yl}piperidine-1-carboxylate]	4.1		
CC(C)(C)OC(=O)N1CCC(c2nc(C3=NOC(c4ccccc4C(=O)O)C3)cs2)CC1 (centres unmarked) [X-a-9, 2-(3-{2-[1-(tert-butoxycarbonyl)piperidin-4-yl]-1,3-thiazol-4-yl}-4,5-dihydro-1,2-oxazol-5-yl)benzoic acid]	3.18		
COCCOc1cccc(Cl)c1C1CC(c2csc(C3CCN(C(=O)Cn4nc(C(F)F)cc4C(F)F)CC3)n2)=NO1 (centres unmarked) [I-50, 2-[3,5-bis(difluoromethyl)-1H-pyrazol-1-yl]-1-[4-(4-{5-[2-chloro-6-(2-methoxyethoxy)phenyl]-4,5-dihydro-1,2-oxazol-3-yl}-1,3-thiazol-2-yl)piperidin-1-yl]ethanone]		3.36	
COC(=O)c1ccccc1C1CC(c2csc(C3CCN(C(=O)Cn4nc(C(F)F)cc4C(F)F)CC3)n2)=NO1 (centres unmarked) [I-43, Methyl 2-{3-[2-(1-{[3,5-bis(difluoromethyl)-1H-pyrazol-1-yl]acetyl}piperidin-4-yl)-1,3-thiazol-4-yl]-4,5-dihydro-1,2-oxazol-5-yl}benzoate]		3.32	
O=C(Cn1nc(C(F)F)cc1C(F)F)N1CCC(c2nc(C3=NOC(c4ccccc4CCl)C3)cs2)CC1 (centres unmarked) [I-44, 2-[3,5-Bis(difluoromethyl)-1H-pyrazol-1-yl]-1-[4-(4-{5-[2-(chloromethyl)phenyl]-4,5-dihydro-1,2-oxazol-3-yl}-1,3-thiazol-2-yl)piperidin-1-yl]ethanone]		3.36	
CC(C)(C)OC(=O)N1CCC(c2nc(C3=NOC(c4c(F)cccc4C=O)C3)cs2)CC1 (centres unmarked) [X-a-13, tert-Butyl 4-{4-[5-(2-fluoro-6-formylphenyl)-4,5-dihydro-1,2-oxazol-3-yl]-1,3-thiazol-2-yl}piperidine-1-carboxylate]	3.62		
CC(C)(C)OC(=O)N1CCC(F)(c2nc(C3=NOC(c4ccccc4)C3)cs2)CC1 (centres unmarked) [X-a-1, tert-Butyl 4-fluoro-4-[4-(5-phenyl-4,5-dihydro-1,2-oxazol-3-yl)-1,3-thiazol-2-yl]piperidine-1-carboxylate]	4.28		
COC(=O)c1ccccc1C1CC(c2nc(C3CCN(C(=O)Cn4nc(C(F)F)cc4C(F)F)CC3)sc2Cl)=NO1 (centres unmarked) [I-46, methyl 2-{3-[2-(1-{[3,5-bis(difluoromethyl)-1H-pyrazol-1-yl]acetyl}piperidin-4-yl)-5-chloro-1,3-thiazol-4-yl]-4,5-dihydro-1,2-oxazol-5-yl}benzoate]		3.98	
O=C(NC1CC1)c1ccccc1C1CC(c2csc(C3CCN(C(=O)Cn4nc(C(F)F)cc4C(F)F)CC3)n2)=NO1 (centres unmarked) [I-27, 2-{3-[2-(1-{[3,5-Bis(difluoromethyl)-1H-pyrazol-1-yl]acetyl}piperidin-4-yl)-1,3-thiazol-4-yl]-4,5-dihydro-1,2-oxazol-5-yl}-N-cyclopropylbenzamide]		2.64	
O=C(Cn1nc(C(F)F)cc1C(F)F)N1CCC(c2nc(C3=NOC(c4ccccc4CO)C3)cs2)CC1 (centres unmarked) [I-45, 2-[3,5-Bis(difluoromethyl)-1H-pyrazol-1-yl]-1-[4-(4-{5-[2-(hydroxymethyl)phenyl]-4,5-dihydro-1,2-oxazol-3-yl}-1,3-thiazol-2-yl)piperidin-1-yl]ethanone]		2.45	
COCCOc1cccc(C2CC(c3csc(C4CCN(C(=O)Cn5nc(C(F)F)cc5C(F)F)CC4)n3)=NO2)c1 (centres unmarked) [I-28, 2-[3,5-Bis(difluoromethyl)-1H-pyrazol-1-yl]-1-[4-(4-{5-[3-(2-methoxyethoxy)phenyl]-4,5-dihydro-1,2-oxazol-3-yl}-1,3-thiazol-2-yl)piperidin-1-yl]ethanone]		3.03	chromatographic logP (pH 7.8, logp [c]): 3.04
C=C(C)COc1ccccc1C1CC(c2csc(C3CCN(C(=O)Cn4nc(C(F)F)cc4C(F)F)CC3)n2)=NO1 (centres unmarked) [I-18, 2-[3,5-bis(difluoromethyl)-1H-pyrazol-1-yl]-1-{4-[4-(5-{2-[(2-methylprop-2-en-1-yl)oxy]phenyl}-4,5-dihydro-1,2-oxazol-3-yl)-1,3-thiazol-2-yl]piperidin-1-yl}ethanone]		3.96	chromatographic logP (pH 7.8, logp [c]): 3.92
c1ccc(C2CC(c3csc(C4CCNCC4)n3)=NO2)c(OCC2CCCCC2)c1 (centres unmarked) [XII-7, 4-(4-{5-[2-(Cyclohexylmethoxy)phenyl]-4,5-dihydro-1,2-oxazol-3-yl}-1,3-thiazol-2-yl)piperidinium chloride]			chromatographic logP (pH 2.7, log P (pH2.7)): 1.9
CS(=O)(=O)Nc1ccccc1C1CC(c2csc(C3CCN(C(=O)Cn4nc(C(F)F)cc4C(F)F)CC3)n2)=NO1 (centres unmarked) [I-37, N-(2-{3-[2-(1-{[3,5-Bis(difluoromethyl)-1H-pyrazol-1-yl]acetyl}piperidin-4-yl)-1,3-thiazol-4-yl]-4,5-dihydro-1,2-oxazol-5-yl}phenyl)methanesulphonamide]		2.51	
O=Cc1ccccc1C1CC(c2csc(C3CCNCC3)n2)=NO1 (centres unmarked) [XII-3, 2-{3-[2-(Piperidin-4-yl)-1,3-thiazol-4-yl]-4,5-dihydro-1,2-oxazol-5-yl}benzaldehyde hydrochloride]	0.76		
CC(C)(C)OC(=O)N1CCC(c2nc(C3=NOC(c4ccccc4[N+](=O)[O-])C3)cs2)CC1 (centres unmarked) [X-a-6, tert-Butyl 4-{4-[5-(2-nitrophenyl)-4,5-dihydro-1,2-oxazol-3-yl]-1,3-thiazol-2-yl}piperidine-1-carboxylate]			chromatographic logP (pH 2.7, log P (pH2.7)): 4.01
COCCOCc1ccccc1C1CC(c2csc(C3CCN(C(=O)Cn4nc(C(F)F)cc4C(F)F)CC3)n2)=NO1 (centres unmarked) [I-11, 2-[3,5-Bis(difluoromethyl)-1H-pyrazol-1-yl]-1-{4-[4-(5-{2-[(2-methoxyethoxy)methyl]phenyl}-4,5-dihydro-1,2-oxazol-3-yl)-1,3-thiazol-2-yl]piperidin-1-yl}ethanone]		3.21	
O=Cc1cccc(F)c1C1CC(c2csc(C3CCN(C(=O)Cn4nc(C(F)F)cc4C(F)F)CC3)n2)=NO1 (centres unmarked) [I-17, 2-{3-[2-(1-{[3,5-Bis(difluoromethyl)-1H-pyrazol-1-yl]acetyl}piperidin-4-yl)-1,3-thiazol-4-yl]-4,5-dihydro-1,2-oxazol-5-yl}-3-fluorobenzaldehyde]		2.92	chromatographic logP (pH 7.8, logp [c]): 2.82
O=Cc1ccccc1-c1cc(-c2csc(C3CCN(C(=O)Cn4nc(C(F)F)cc4C(F)F)CC3)n2)no1 [I-31, 2-{3-[2-(1-{[3,5-Bis(difluoromethyl)-1H-pyrazol-1-yl]acetyl}piperidin-4-yl)-1,3-thiazol-4-yl]-1,2-oxazol-5-yl}benzaldehyde]		3.25	
CC(C)(C)OC(=O)N1CCC(F)(c2nc(C=O)cs2)CC1 [VI-1, tert-Butyl 4-fluoro-4-(4-formyl-1,3-thiazol-2-yl)piperidine-1-carboxylate]	2.8		
O=C(OCC1CC1)c1ccccc1C1CC(c2csc(C3CCN(C(=O)Cn4nc(C(F)F)cc4C(F)F)CC3)n2)=NO1 (centres unmarked) [I-13, Cyclopropylmethyl 2-{3-[2-(1-{[3,5-bis(difluoromethyl)-1H-pyrazol-1-yl]acetyl}piperidin-4-yl)-1,3-thiazol-4-yl]-4,5-dihydro-1,2-oxazol-5-yl}benzoate]		3.99	chromatographic logP (pH 7.8, logp [c]): 3.92
CC(C)(C)OC(=O)N1CCC(c2nc(C3=NOC(c4ccccc4NS(C)(=O)=O)C3)cs2)CC1 (centres unmarked) [X-a-4, tert-Butyl 4-[4-(5-{2-[(methylsulphonyl)amino]phenyl}-4,5-dihydro-1,2-oxazol-3-yl)-1,3-thiazol-2-yl]piperidine-1-carboxylate]	3		
COC(=O)c1ccccc1C1CC(c2csc(C3CCN(C(=O)OC(C)(C)C)CC3)n2)=NO1 (centres unmarked) [X-a-8, tert-butyl 4-(4-{5-[2-(methoxycarbonyl)phenyl]-4,5-dihydro-1,2-oxazol-3-yl}-1,3-thiazol-2-yl)piperidine-1-carboxylate]	4.14		
O=[N+]([O-])c1ccccc1C1CC(c2csc(C3CCNCC3)n2)=NO1 (centres unmarked) [XII-6, 4-{4-[5-(2-Nitrophenyl)-4,5-dihydro-1,2-oxazol-3-yl]-1,3-thiazol-2-yl}piperidinium chloride]			chromatographic logP (pH 2.7, log P (pH2.7)): 1.09
FC1(c2nc(C3=NOC(c4ccccc4)C3)cs2)CCNCC1 (centres unmarked) [XII-1, 4-fluoro-4-[4-(5-phenyl-4,5-dihydro-1,2-oxazol-3-yl)-1,3-thiazol-2-yl]piperidinium chloride]	1.17		
CS(=O)(=O)Nc1ccccc1C1CC(c2csc(C3CCNCC3)n2)=NO1 (centres unmarked) [XII-4, 4-[4-(5-{2-[(Methylsulphonyl)amino]phenyl}-4,5-dihydro-1,2-oxazol-3-yl)-1,3-thiazol-2-yl]piperidinium chloride]	0.72		
CC(=O)c1ccccc1C1CC(c2csc(C3CCNCC3)n2)=NO1 (centres unmarked) [XII-2, 1-(2-{3-[2-(Piperidin-4-yl)-1,3-thiazol-4-yl]-4,5-dihydro-1,2-oxazol-5-yl}phenyl)ethanone hydrochloride]	0.96		
